Results from US12076307B2, “Compositions for prevention or treatment of acute radiation syndrome and other radiation exposure” (priority 2017, dated 2024).

Tests used:
[1] = Whole blood and lymphatic radioactivity in rats after single oral [14C]EC-18 100 mg/kg; format: in vivo, rat; conditions: 100 mg/kg oral; for Tmax: n=3, 100 mg/kg
Procedure: Male SD rats in fasted condition were administered a single dose of [^14C]EC-18 (oral dose of 100 mg/kg; vehicle: olive oil), and the radioactive concentration of the EC-18 was measured in whole blood samples at 0.5, 1, 2, 3, 4, 6, and 8 hrs after its administration. In parallel, male rats with a cannula inserted into the intestinal tract were administered a single dose of [^14C]EC-18 (oral dose of 100 mg/kg; vehicle: olive oil) and the concentration of EC-18-related radioactivity was measured in lymphatic fluid collected in conscious rats at 0.5, 1, 2, 3, 4, 6, and 8 hrs after its administration (FIG. 60). Then, the values of PK parameters were calculated using the quantitative data from whole blood and lymphatic fluid samples (Table 20). Following a single oral administration of [14C]EC-18, EC-18 concentration in the lymphatic fluid of rats was 10 to 53 times higher than that in whole blood (FIG. 60).

[2] = tested on: Balb/c mice, 6.11 Gy gamma-radiation; assay: Radiation-induced pneumonitis mouse model: lung damage; format: in vivo; conditions: 50 or 250 mg/kg daily Day 0 to 3
Procedure: To examine the effect of EC-18 on the lung damage in pneumonitis, female Balb/c mice (n=3/group) were exposed to 6.11 Gy of gamma-radiation at Day 0. EC-18 at 50 or 250 mg/kg was administered daily from Day 0 to 3. To verify the vascular leakage of the lung due to radiation exposure, Evans blue staining was diluted with PBS and injected i.v. into mice 30 mins before sacrificing them on Day 3 (FIG. 56).
The further microscopical analysis was conducted by extracting the lung after sacrificing the mice. The perfused lung tissues were fixed in 10% buffered formalin for 24 hrs, embedded in paraffin, sectioned at 4 μm, and stained with hematoxylin and eosin (H&E) staining. […] In contrast, the infiltration of the RBCs into the lung tissues was not observed in both the EC-18-treated group.

[3] = In vitro metabolic stability / metabolite screening, human liver microsomes; format: in vitro ADME; conditions: for Mean Peak Area in LC-RID: Human, N=2
Procedure: [^14C]EC-18 or the positive control (7-ethoxycoumarin; 7-EC) reacted with microsomes prepared from hepatocytes of rats, dogs, monkeys, and humans, with or without cofactors, for 60 and 120 min. Then, the residual EC-18 concentration over time was measured by LC-RID ([^14C]EC-18) or LC-MS/MS (7-EC) (FIG. 63 and FIG. 64).
Each test system was designed to examine phase 1 metabolic reaction (test system A), phase 2 metabolic reaction (test system B), and non-enzymatic degradation.
The LC-RID chromatographic profiles of radioactive metabolites produced in the 2-hr incubation reaction mixtures of the same test systems A, B, and C used to assess the metabolic and non-metabolic elimination rates of EC-18 were compared to the LC-UV chromatographic profiles of the synthetic reference material. […] The relative radioactivity of EC-18 accounted for 42-67% of total radioactivity. […]. The peaks of M4 and M6 were determined in monkeys and humans. M1 was abundantly detected in all species, but it was assumed to be a peak of early elution. The LC-UV chromatograms of reaction mixtures in each test system (FIGS. 65A-65C) and the relative radioactivity of the screened metabolites are shown in Table 25.

[4] = tested on: RIPK1/3-MLKL-mediated necroptosis pathway; assay: Necroptosis signaling and DAMP release in HaCaT cells treated with CM or rhHMGB1; format: cell-based, human
Procedure: An additional experiment was tested for assessing whether EC-18 treatment leads to early termination of the RIPK1/3-MLKL-mediated downstream necroptosis pathway. This was performed by using DAMP-containing conditioned media (CM) harvested from HaCaT cells, irradiated for 48 hrs, and analyzed after 2 or 72 hrs of EC-18 treatment. […] To further confirm that DAMPs in CM contribute to the activation of a necroptosis signaling pathway in a paracrine manner, recombinant human HMGB1 (rhHMGB1) was treated directly to the normal HaCaT cells. The rhHMGB1 elevated the phosphorylation of RIPK1/3 and MLKL after 2 hrs and subsequently released HMGB1 and HSP90 (FIGS. 35C-35D). To evaluate whether EC-18 mitigates the activation of RIPK1/3 and MLKL, 10 or 100 μg/mL of EC-18 was treated before the addition of CM or rhHMGB1. As a result, EC-18 lowered the phosphorylation of RIPK/3 and MLKL in both CM- and rhHMGB1-treated cells after 2 hrs. Release of HMGB1 and Hsp90 was also subsided by EC-18 after 72 hrs of post addition of CM or rhHMGB1 to the cells (FIGS. 35A-35D). TLR4-induced necroptosis signaling pathway caused by DAMP release produces cytokines, such as CXCL8, a chemotactic cytokine for neutrophils. As CXCL8 increases upon tissue damage, it was measured in cells treated with CM or rhHMGB1 as a measure of inflammation. […]

Beagle dog = assay: Single-dose toxicity, Beagle dog; format: in vivo; conditions: Oral, Days 1, 5, 9, 13
Excerpt: Various toxicology studies have been performed. All studies were GLP-compliant unless otherwise noted.

[5] = tested on: HaCaT (human keratinocyte) cells; assay: Radiation-induced DAMP (HMGB1) release from HaCaT cells; format: cell-based; conditions: γ-irradiated HaCaT cells
Procedure: The radiation-induced DAMP removal was evaluated in HaCaT (human keratinocyte) cells exposed with γ-radiation from a ^60Co radiation source (0.833 Gy/minute). As one type of DAMPs, high-mobility group box 1 (HMGB1) was used as a biomarker to establish the mitigating effect of EC-18 against radiation. HMGB1 proportionally secreted as the radiation dosage (5 to 10 Gy) and exposure time (24 to 48 hrs) increased (FIG. 33A).

Structure (SMILES): CCCCC/C=C\C/C=C\CCCCCCCC(=O)OC(COC(C)=O)COC(=O)CCCCCCCCCCCCCCC (stereo not drawn) [EC-18, 1-palmitoyl-2-linoleoyl-3-acetylglycerol]
- AUC0-last in lymphatic fluid relative to whole blood [1]: 41 times
- Cmax in lymphatic fluid relative to whole blood [1]: 31 times
- Tmax ([1]; Lymphatic Fluid): 7.0 h
- Tmax ([1]; Whole Blood, fasted): 3.8 h
- infiltration of RBCs into the lung tissues (H&E) [2]: not observed
- vascular leakage of the lung (Evans blue) [2]: mitigated the vascular leakage
- elimination rate ([3]; 1-hr reaction, test system A (Phase 1 metabolic reaction)): 21.2%
- elimination rate ([3]; 1-hr reaction, test system B (Phase 2 metabolic reaction)): 25.5%
- elimination rate ([3]; 1-hr reaction, test system C (non-enzymatic degradation)): 26.5%
- elimination rate ([3]; 2-hr reaction, test system A): 32.8%
- elimination rate ([3]; 2-hr reaction, test system B): 35.4%
- elimination rate ([3]; 2-hr reaction, test system C): 32.6%
- Mean Peak Area in LC-RID ([3]; A (NADPH added), [14C]EC-18 2 hrs): 67.2%
- Mean Peak Area in LC-RID ([3]; B (NADPH, PAPS, UDPGA added), 2 hrs): 64.6%
- Mean Peak Area in LC-RID ([3]; C (no cofactor added), 2 hrs): 67.4%
- phosphorylation of RIPK1/3 and MLKL ([4]; 10 or 100 μg/mL before CM or rhHMGB1, after 2 hrs): lowered
- release of HMGB1 and Hsp90 ([4]; 10 or 100 μg/mL, 72 hrs after CM or rhHMGB1): subsided
- Approximate lethal dose (Beagle dog): dose: >2000 mg/kg
- mortality (Beagle dog; 0, 500, 1000, 1500, 2000 mg/kg): No dead animals
- findings (Beagle dog; up to 2000 mg/kg): No specific findings
- HMGB1 release [5]: less HMGB1 released in a dose-dependent manner
